Molecular target: T1, PARP1 (Homo sapiens, UniProt P09874)
T1 construct: purchased BPS Bioscience
Test: PARP1 Biochemical Assay (BPS Bioscience kit, chemiluminescence)
Conditions: histone-coated plate, biotinilated NAD+, 25° C. for 60 min, luminescence, read-out: PARP 1 inhibition IC50
Method: The assay was performed using BPS Bioscience kit. The 96-well strip plate was coated with 50 μl of histone mixture and incubated at 4° C. overnight. Next day the wells were blocked by adding 100 μl of blocking buffer. The plate was washed and 25 μl of appropriate concentration of PARP1 (25-75 ng/well) was added in all the Test and Positive control wells. In Negative control wells enzyme was replaced with 25 μl of water. To it 5 μl each of 10×PARP assay buffer and activated DNA was added in all the wells (Test, Positive and Negative control wells). 10× concentration of test compounds were prepared and 5 μl test compounds were added respective wells. Reaction volume was made up to 45 μl by adding water to all the wells. Finally, 5 μl of 10×PARP assay mixture containing biotinilated NAD^+ was added in each well and the plate was incubated at ambient temperature (25° C.) for 60 min. After washing the plate 50 μl of Streptavidin-HRP was added in each well and incubated the plate at RT for 30 min. The plate was washed and the luminescence was read in PHERAStar plate reader after adding 100 μl of chemiluminescent substrate.
PARP inhibition was calculated using the following formula: % PARP inhibition=100−[(RLU test compound treated sample−RLU negative control)/(RLU Positive control−RLU negative control)×100]
IC50 values were calculated by plotting % inhibition against the respective concentrations of test compounds using GraphPad Prism 5.

T1 sequence (P09874 whole entry): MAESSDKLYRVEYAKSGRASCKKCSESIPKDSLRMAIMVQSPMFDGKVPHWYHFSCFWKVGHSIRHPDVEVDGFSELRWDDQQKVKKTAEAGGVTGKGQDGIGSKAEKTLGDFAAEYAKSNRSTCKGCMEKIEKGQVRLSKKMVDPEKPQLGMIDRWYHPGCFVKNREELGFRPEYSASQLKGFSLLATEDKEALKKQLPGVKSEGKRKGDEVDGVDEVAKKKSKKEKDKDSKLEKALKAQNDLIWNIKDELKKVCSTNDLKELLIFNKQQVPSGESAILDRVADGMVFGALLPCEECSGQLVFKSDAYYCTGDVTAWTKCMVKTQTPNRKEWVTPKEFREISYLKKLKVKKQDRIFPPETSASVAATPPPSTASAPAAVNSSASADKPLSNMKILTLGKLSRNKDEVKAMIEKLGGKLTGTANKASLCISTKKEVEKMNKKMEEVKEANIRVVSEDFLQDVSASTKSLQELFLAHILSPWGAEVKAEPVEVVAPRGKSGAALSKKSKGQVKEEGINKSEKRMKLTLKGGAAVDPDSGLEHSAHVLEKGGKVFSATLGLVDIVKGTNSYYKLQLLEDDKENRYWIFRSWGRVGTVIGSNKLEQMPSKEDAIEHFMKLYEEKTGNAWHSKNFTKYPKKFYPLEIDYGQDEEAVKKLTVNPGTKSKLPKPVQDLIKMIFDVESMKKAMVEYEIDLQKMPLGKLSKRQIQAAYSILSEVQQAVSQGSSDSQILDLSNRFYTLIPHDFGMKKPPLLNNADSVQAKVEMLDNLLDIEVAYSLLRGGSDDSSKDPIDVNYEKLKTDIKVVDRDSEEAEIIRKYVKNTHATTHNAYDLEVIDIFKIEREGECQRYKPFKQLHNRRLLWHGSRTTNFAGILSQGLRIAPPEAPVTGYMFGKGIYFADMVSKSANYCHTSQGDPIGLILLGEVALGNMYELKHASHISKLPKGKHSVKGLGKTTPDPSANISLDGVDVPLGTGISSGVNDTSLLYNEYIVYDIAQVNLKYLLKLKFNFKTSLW

IC50	SMILES
5000 to 500000 nM	O=c1[nH]c(CCCN2CCN(c3ccc(F)cc3)CC2)nc2c1C1CCC2C1 (stereo not drawn) [Compound 35, 2-(3-(4-(4-fluorophenyl)piperazin-1-yl)propyl)-5,6,7,8-tetrahydro-5,8-methanoquinazolin-4(3H)-one]
5000 to 500000 nM	O=c1[nH]c(CCCN2CCN(c3ccc(Cl)cc3)CC2)nc2c1C1CCC2C1 (stereo not drawn) [Compound 36, 2-(3-(4-(4-chlorophenyl)piperazin-1-yl)propyl)-5,6,7,8-tetrahydro-5,8-methanoquinazolin-4(3H)-one]
1 to 500 nM	O=c1[nH]c(C2=C[C@H](N3CCN(c4ccc(Cl)cc4)CC3)CC2)nc2c1CC1(CC2)CC1 [Compound 37, (R)-2′-(3-(4-(4-chlorophenyl)piperazin-1-yl)cyclopent-1-en-1-yl)-7′,8′-dihydro-3′H-spiro[cyclopropane-1,6′-quinazolin]-4′(5′H)-one]
1 to 500 nM	O=c1[nH]c(C2=C[C@@H](N3CCN(c4ccc(Cl)cc4)CC3)CC2)nc2c1CC1(CC2)CC1 [Compound 38, (S)-2′-(3-(4-(4-chlorophenyl)piperazin-1-yl)cyclopent-1-en-1-yl)-7′,8′-dihydro-3′H-spiro[cyclopropane-1,6′-quinazolin]-4′(5′H)-one]
1 to 500 nM	O=c1[nH]c(C2=CC(N3CCN(c4ccncc4)CC3)CC2)nc2c1CC1(CC2)CC1 (stereo not drawn) [Compound 39, 2′-(3-(4-(pyridin-4-yl)piperazin-1-yl)cyclopent-1-en-1-yl)-7′,8′-dihydro-3′H-spiro[cyclopropane-1,6′-quinazolin]-4′(5′H)-one]
1 to 500 nM	O=c1[nH]c(C2=C[C@@H](N3CCN(c4ccc(Cl)cc4)CC3)CC2)nc2c1CCCC21CC1 [Compound 40, (S)-2′-(3-(4-(4-chlorophenyl)piperazin-1-yl)cyclopent-1-en-1-yl)-6′,7′-dihydro-3′H-spiro[cyclopropane-1,8′-quinazolin]-4′(5′H)-one]
5000 to 500000 nM	O=c1[nH]c(C2=C[C@H](N3CCN(c4ccc(Cl)cc4)CC3)CC2)nc2c1CCCC21CC1 [Compound 41, (R)-2′-(3-(4-(4-chlorophenyl)piperazin-1-yl)cyclopent-1-en-1-yl)-6′,7′-dihydro-3′H-spiro[cyclopropane-1,8′-quinazolin]-4′(5′H)-one]
1 to 500 nM	O=c1[nH]c(C2=C[C@H](N3CCN(c4ccc(F)cc4)CC3)CC2)nc2c1CC1(CC2)CC1 [Compound 42, (R)-2′-(3-(4-(4-fluorophenyl)piperazin-1-yl)cyclopent-1-en-1-yl)-7′,8′-dihydro-3′H-spiro[cyclopropane-1,6′-quinazolin]-4′(5′H)-one]
5000 to 500000 nM	O=c1[nH]c(C2=C[C@@H](N3CCN(c4ccc(F)cc4)CC3)CC2)nc2c1CC1(CC2)CC1 [Compound 43, (S)-2′-(3-(4-(4-fluorophenyl)piperazin-1-yl)cyclopent-1-en-1-yl)-7′,8′-dihydro-3′H-spiro[cyclopropane-1,6′-quinazolin]-4′(5′H)-one]
1 to 500 nM	O=C(NC1CC1)c1ccc(N2CCN(C3C=C(c4nc5c(c(=O)[nH]4)CC4(CC5)CC4)CC3)CC2)cc1 (stereo not drawn) [Compound 44, N-cyclopropyl-4-(4-(3-(4′-oxo-4′,5′,7′,8′-tetrahydro-3′H-spiro[cyclopropane-1,6′-quinazolin]-2′-yl)cyclopent-2-en-1-yl)piperazin-1-yl)benzamide]
5000 to 500000 nM	O=C1CN([C@H]2C=C(c3nc4c(c(=O)[nH]3)CC3(CC4)CC3)CC2)CCN1c1ccc(F)cc1 [Compound 45, (R)2′-(3-(4-(4-fluorophenyl)-3-oxopiperazin-1-yl)cyclopent-1-en-1-yl)-7′,8′-dihydro-3′H-spiro[cyclopropane-1,6′-quinazolin]-4′(5′H)-one]

Continued, compound first:

SMILES	IC50
O=c1[nH]c(CCCN2CC=C(c3ccc(F)cc3)CC2)nc2c1CCC1(CC1)C2 [Compound 16, 2′-(3-(4-(4-fluorophenyl)-5,6-dihydropyridin-1(2H)-yl)propyl)-5′,6′-dihydro-3′H-spiro[cyclopropane-1,7′-quinazolin]-4′(8′H)-one]	5000 to 500000 nM
O=c1[nH]c(CCCN2CC=C(c3ccccc3)CC2)nc2c1CCC1(CC1)C2 [Compound 17, 2′-(3-(4-phenyl-5,6-dihydropyridin-1(2H)-yl)propyl)-5′,6′-dihydro-3′H-spiro[cyclopropane-1,7′-quinazolin]-4′(8′H)-one]	5000 to 500000 nM
O=c1[nH]c(CCCN2CCN(c3cccc(Cl)c3)CC2)nc2c1CC1(CC2)CC1 [Compound 18, 2′-(3-(4-(3-chlorophenyl)piperazin-1-yl)propyl)-7′,8′-dihydro-3′H-spiro[cyclopropane-1,6′-quinazolin]-4′(5′H)-one]	5000 to 500000 nM
O=c1[nH]c(CCCN2CCC(c3ccccc3)CC2)nc2c1CC1(CC2)CC1 [Compound 19, 2′-(3-(4-phenylpiperidin-1-yl)propyl)-7′,8′-dihydro-3′H-spiro[cyclopropane-1,6′-quinazolin]-4′(5′H)-one]	1 to 500 nM
O=c1[nH]c(CCCN2CCN(c3ccccn3)CC2)nc2c1CC1(CC2)CC1 [Compound 20, 2′-(3-(4-(pyridin-2-yl)piperazin-1-yl)propyl)-7′,8′-dihydro-3′H-spiro[cyclopropane-1,6′-quinazolin]-4′(5′H)-one]	5000 to 500000 nM
CC(CCc1nc2c(c(=O)[nH]1)CC1(CC2)CC1)N1CCN(c2ccc(F)cc2)CC1 (stereo not drawn) [Compound 21, 2′-(3-(4-(4-fluorophenyl)piperazin-1-yl)butyl)-7′,8′-dihydro-3′H-spiro[cyclopropane-1,6′-quinazolin]-4′(5′H)-one]	1 to 500 nM
O=c1[nH]c(CCCN2CCN(c3cccc(C(F)(F)F)c3)CC2)nc2c1CC1(CC2)CC1 [Compound 22, 2′-(3-(4-(3-(trifluoromethyl)phenyl)piperazin-1-yl)propyl)-7′,8′-dihydro-3′H-spiro[cyclopropane-1,6′-quinazolin]-4′(5′H)-one]	5000 to 500000 nM
Cc1cccc(N2CCN(CCCc3nc4c(c(=O)[nH]3)CC3(CC4)CC3)CC2)c1 [Compound 23, 2′-(3-(4-(m-tolyl)piperazin-1-yl)propyl)-7′,8′-dihydro-3′H-spiro[cyclopropane-1,6′-quinazolin]-4′(5′H)-one]	5000 to 500000 nM
O=c1[nH]c(CCCN2CCN(c3ccc(F)cc3)CC2)nc2c1CC1CC1C2 (stereo not drawn) [Compound 24, 2-(3-(4-(4-fluorophenyl)piperazin-1-yl)propyl)-5a,6,6a,7-tetrahydro-3H-cyclopropa[g]quinazolin-4(5H)-one]	1 to 500 nM
O=c1[nH]c(CCCN2CCN(c3ccccc3)CC2)nc2c1CC1CC1C2 (stereo not drawn) [Compound 25, 2-(3-(4-phenylpiperazin-1-yl)propyl)-5a,6,6a,7-tetrahydro-3H-cyclopropa[g]quinazolin-4(5H)-one]	501 to 5000 nM
CC1CN(c2ccc(F)cc2)CC(C)N1CCCc1nc2c(c(=O)[nH]1)CC1(CC2)CC1 (stereo not drawn) [Compound 26, 2′-(3-(4-(4-fluorophenyl)-2,6-dimethylpiperazin-1-yl)propyl)-7′,8′-dihydro-3′H-spiro[cyclopropane-1,6′-quinazolin]-4′(5′H)-one]	5000 to 500000 nM
CC1CN(c2ccc(F)cc2)CCN1CCCc1nc2c(c(=O)[nH]1)CC1(CC2)CC1 (stereo not drawn) [Compound 27, 2′-(3-(4-(4-fluorophenyl)-2-methylpiperazin-1-yl)propyl)-7′,8′-dihydro-3′H-spiro[cyclopropane-1,6′-quinazolin]-4′(5′H)-one]	1 to 500 nM
O=c1[nH]c(CCCN2CCN(c3ccccc3F)CC2)nc2c1CC1(CC2)CC1 [Compound 28, 2′-(3-(4-(2-fluorophenyl)piperazin-1-yl)propyl)-7′,8′-dihydro-3′H-spiro[cyclopropane-1,6′-quinazolin]-4′(5′H)-one]	1 to 500 nM
O=c1[nH]c(CCCN2CCN(c3ccncc3)CC2)nc2c1CC1(CC2)CC1 [Compound 29, 2′-(3-(4-(pyridin-4-yl)piperazin-1-yl)propyl)-7′,8′-dihydro-3′H-spiro[cyclopropane-1,6′-quinazolin]-4′(5′H)-one]	1 to 500 nM
CC(C)(CCc1nc2c(c(=O)[nH]1)CC1(CC2)CC1)N1CCN(c2ccc(F)cc2)CC1 [Compound 30, 2′-(3-(4-(4-fluorophenyl)piperazin-1-yl)-3-methylbutyl)-7′,8′-dihydro-3′H-spiro[cyclopropane-1,6′-quinazolin]-4′(5′H)-one]	1 to 500 nM
CC(C)(/C=C/c1nc2c(c(=O)[nH]1)CC1(CC2)CC1)N1CCN(c2ccc(F)cc2)CC1 [Compound 31, (E)-2′-(3-(4-(4-fluorophenyl)piperazin-1-yl)-3-methylbut-1-en-1-yl)-7′,8′-dihydro-3′H-spiro[cyclopropane-1,6′-quinazolin]-4′(5′H)-one]	5000 to 500000 nM
Cc1ccc(N2CCN(CCCc3nc4c(c(=O)[nH]3)CC3(CC4)CC3)CC2)cc1 [Compound 32, 2′-(3-(4-(p-tolyl)piperazin-1-yl)propyl)-7′,8′-dihydro-3′H-spiro[cyclopropane-1,6′-quinazolin]-4′(5′H)-one]	1 to 500 nM
O=C1CN(c2ccc(F)cc2)CCN1CCCc1nc2c(c(=O)[nH]1)CC1(CC2)CC1 [Compound 33, 2′-(3-(4-(4-fluorophenyl)-2-oxopiperazin-1-yl)propyl)-7′,8′-dihydro-3′H-spiro[cyclopropane-1,6′-quinazolin]-4′(5′H)-one]	5000 to 500000 nM
O=c1[nH]c(CCCN2CCN(c3ccc(Cl)cc3Cl)CC2)nc2c1CC1(CC2)CC1 [Compound 34, 2′-(3-(4-(2,4-dichlorophenyl)piperazin-1-yl)propyl)-7′,8′-dihydro-3′H-spiro[cyclopropane-1,6′-quinazolin]-4′(5′H)-one]	1 to 500 nM

— US9359367B2, “Tetrahydroquinazolinone derivatives as PARP inhibitors” (Lupin Limited, priority 2012, dated 2016)
